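96-well plates; 48 h exposure; 5 concentrations. Endpoints by linear interpolation between flanking doses. Not reached: highest tested concentration assigned. TGI: total growth inhibition.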
Legend:
Assay in all cases: NCI anticancer screen, dose series, 48 h
SN12C renal = test system: SN12C renal
HCT-116 colon = test system: HCT-116 colon
HS 578T breast = test system: HS 578T breast
OVCAR-5 ovarian = test system: OVCAR-5 ovarian
OVCAR-3 ovarian = test system: OVCAR-3 ovarian
SK-MEL-28 melanoma = test system: SK-MEL-28 melanoma
SW-620 colon = test system: SW-620 colon
SF-539 CNS = test system: SF-539 CNS
SF-295 CNS = test system: SF-295 CNS
KM12 colon = test system: KM12 colon
MDA-MB-435 = test system: MDA-MB-435
A549 NSCLC = test system: A549 NSCLC
COLO 205 colon = test system: COLO 205 colon
OVCAR-4 ovarian = test system: OVCAR-4 ovarian
CCRF-CEM leukemia = test system: CCRF-CEM leukemia
IGROV1 ovarian = test system: IGROV1 ovarian
BT-549 breast = test system: BT-549 breast
SK-MEL-5 melanoma = test system: SK-MEL-5 melanoma
RPMI-8226 leukemia = test system: RPMI-8226 leukemia
PC-3 prostate = test system: PC-3 prostate
HOP-92 NSCLC = test system: HOP-92 NSCLC
NCI/ADR-RES ovarian = test system: NCI/ADR-RES ovarian
UACC-257 melanoma = test system: UACC-257 melanoma
HCT-15 colon = test system: HCT-15 colon
MOLT-4 leukemia = test system: MOLT-4 leukemia
MDA-MB-231 breast = test system: MDA-MB-231 breast
CAKI-1 renal = test system: CAKI-1 renal
OVCAR-8 ovarian = test system: OVCAR-8 ovarian
NCI-H460 lung = test system: NCI-H460 lung
SNB-75 CNS = test system: SNB-75 CNS
NCI-H522 lung = test system: NCI-H522 lung
U251 CNS = test system: U251 CNS
MDA-N = test system: MDA-N
A498 renal = test system: A498 renal
HOP-62 NSCLC = test system: HOP-62 NSCLC
LOX IMVI melanoma = test system: LOX IMVI melanoma
NCI-H226 lung = test system: NCI-H226 lung
786-0 renal = test system: 786-0 renal
MALME-3M melanoma = test system: MALME-3M melanoma
NCI-H23 lung = test system: NCI-H23 lung
HL-60(TB) leukemia = test system: HL-60(TB) leukemia
SR leukemia = test system: SR leukemia
UO-31 renal = test system: UO-31 renal
EKVX NSCLC = test system: EKVX NSCLC
K-562 leukemia = test system: K-562 leukemia
TK-10 renal = test system: TK-10 renal
ACHN renal = test system: ACHN renal
DU-145 prostate = test system: DU-145 prostate
HT29 colon = test system: HT29 colon
SNB-19 CNS = test system: SNB-19 CNS
MCF7 breast = test system: MCF7 breast
HCC-2998 colon = test system: HCC-2998 colon

Measured: TGI

CCCc1c(O)c2ccccc2[nH]c1=O
> 100 µM: SN12C renal | HCT-116 colon | HS 578T breast | OVCAR-5 ovarian | OVCAR-3 ovarian | SK-MEL-28 melanoma | SW-620 colon | SF-539 CNS | SF-295 CNS | KM12 colon | MDA-MB-435 | A549 NSCLC | COLO 205 colon | OVCAR-4 ovarian | CCRF-CEM leukemia | IGROV1 ovarian | BT-549 breast | SK-MEL-5 melanoma | RPMI-8226 leukemia | PC-3 prostate | HOP-92 NSCLC | NCI/ADR-RES ovarian | UACC-257 melanoma | HCT-15 colon | MOLT-4 leukemia | MDA-MB-231 breast | CAKI-1 renal | OVCAR-8 ovarian | NCI-H460 lung | SNB-75 CNS | NCI-H522 lung | U251 CNS | MDA-N | A498 renal | HOP-62 NSCLC | LOX IMVI melanoma | NCI-H226 lung | 786-0 renal | MALME-3M melanoma | NCI-H23 lung | HL-60(TB) leukemia | SR leukemia | UO-31 renal | EKVX NSCLC | K-562 leukemia | TK-10 renal | ACHN renal | DU-145 prostate | HT29 colon | SNB-19 CNS | MCF7 breast | HCC-2998 colon

— PubChem BioAssay (NCI)
